Experimental data published in paper PMC12399242 (Acta Pharmaceutica Sinica. B, 2025).
Like-named read-outs stand apart in the source and are kept apart here.

Assays:
HIV-1 K103N = assay: Antiviral activity against HIV-1 mutant K103N in MT-4 cells; type: cell-based; conditions: Human immunodeficiency virus 1, MT4, read-out: EC50 K103N
HIV-1 Y181C = assay: Antiviral activity against HIV-1 mutant Y181C in MT-4 cells; type: cell-based
HIV-1 E138K = assay: Antiviral activity against HIV-1 mutant E138K in MT-4 cells; type: cell-based; conditions: Human immunodeficiency virus 1, MT4, read-out: EC50 E138K
HIV-1 Y188L = assay: Antiviral activity against HIV-1 mutant Y188L in MT-4 cells; type: cell-based; conditions: Human immunodeficiency virus 1, MT4, read-out: EC50 Y188L
HIV-1 F227L + V106A = assay: microbe, parasite or virus in culture; type: cell-based; conditions: Human immunodeficiency virus 1, MT4, read-out: EC50 F227L + V106A
[1] = Human liver microsomal stability assay; type: in vitro ADME
Method: A mixed system of human liver microsomes (0.5 mg/mL), MgCl2 (3 mmol/L), tested compound (1.0 μmol/L), and NADPH (1.0 mmol/L) in PBS (0.1 mol/L) was incubated at 37 °C. After 0, 5, 15, 30, 45, and 60 min, aliquots were sampled respectively and then terminated by adding methanol containing internal standard. After centrifugation using a Thermo Scientific Fresco 17 microcentrifuge (4 °C, 3800 rpm, 15 min), the supernatant was removed for LC‒MS/MS analysis.

CYP1A2 = target: T1, CYP1A2 (Homo sapiens, UniProt P05177); assay: CYP enzyme inhibition assay, CYP1A2; type: in vitro ADME; conditions: human liver microsomes
T1 construct: An incubation system of human liver microsomes (20 μL, 1.5 mg/mL); from tissue; host or cells: human liver microsomes
T1 sequence (P05177 whole entry): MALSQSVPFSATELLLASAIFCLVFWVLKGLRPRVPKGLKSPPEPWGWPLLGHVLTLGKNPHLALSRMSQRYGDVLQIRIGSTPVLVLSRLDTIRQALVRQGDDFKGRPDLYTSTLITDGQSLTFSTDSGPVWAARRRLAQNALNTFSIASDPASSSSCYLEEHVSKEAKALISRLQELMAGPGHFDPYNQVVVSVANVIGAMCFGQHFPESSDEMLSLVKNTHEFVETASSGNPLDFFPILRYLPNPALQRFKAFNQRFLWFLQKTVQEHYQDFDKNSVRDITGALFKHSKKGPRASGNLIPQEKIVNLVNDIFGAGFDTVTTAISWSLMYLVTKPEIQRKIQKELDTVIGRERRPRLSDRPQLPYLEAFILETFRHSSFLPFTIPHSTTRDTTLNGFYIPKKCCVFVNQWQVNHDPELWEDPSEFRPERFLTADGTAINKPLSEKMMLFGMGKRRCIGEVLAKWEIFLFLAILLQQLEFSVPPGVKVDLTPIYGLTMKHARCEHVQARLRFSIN
Method: (§1) An incubation system of human liver microsomes (20 μL, 1.5 mg/mL), 20 μL probe substrates, and 50 μL test compound in Tris (0.1 mol/L) was pre-incubated at 37 °C for 10 min, and then initiated by adding NADPH (10 μL, 10 mmol/L). […] Finally, the sample was centrifugated to obtain the supernatant for LC‒MS/MS analysis.

CYP2C9 = target: T2, CYP2C9 (Homo sapiens, UniProt P11712); assay: CYP enzyme inhibition assay, CYP2C9; type: in vitro ADME; conditions: human liver microsomes
T2 construct: An incubation system of human liver microsomes (20 μL, 1.5 mg/mL); from tissue; host or cells: human liver microsomes
T2 sequence (P11712 whole entry): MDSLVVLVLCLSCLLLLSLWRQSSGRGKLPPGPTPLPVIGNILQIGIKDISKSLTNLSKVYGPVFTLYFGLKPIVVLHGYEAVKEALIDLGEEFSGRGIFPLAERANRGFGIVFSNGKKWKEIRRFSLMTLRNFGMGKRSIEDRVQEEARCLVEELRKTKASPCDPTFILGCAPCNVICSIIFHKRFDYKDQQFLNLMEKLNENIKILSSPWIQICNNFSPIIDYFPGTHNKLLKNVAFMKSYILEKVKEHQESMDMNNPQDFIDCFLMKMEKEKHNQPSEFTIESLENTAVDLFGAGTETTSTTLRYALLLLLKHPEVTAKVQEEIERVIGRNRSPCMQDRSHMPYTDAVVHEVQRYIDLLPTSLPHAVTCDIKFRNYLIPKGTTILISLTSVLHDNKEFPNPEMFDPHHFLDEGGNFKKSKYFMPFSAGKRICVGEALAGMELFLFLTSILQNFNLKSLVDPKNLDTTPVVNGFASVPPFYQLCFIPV
Method: as §1

CYP2C19 = target: T3, CYP2C19 (Homo sapiens, UniProt P33261); assay: CYP enzyme inhibition assay, CYP2C19; type: in vitro ADME; conditions: human liver microsomes
T3 construct: An incubation system of human liver microsomes (20 μL, 1.5 mg/mL); from tissue; host or cells: human liver microsomes
T3 sequence (P33261 whole entry): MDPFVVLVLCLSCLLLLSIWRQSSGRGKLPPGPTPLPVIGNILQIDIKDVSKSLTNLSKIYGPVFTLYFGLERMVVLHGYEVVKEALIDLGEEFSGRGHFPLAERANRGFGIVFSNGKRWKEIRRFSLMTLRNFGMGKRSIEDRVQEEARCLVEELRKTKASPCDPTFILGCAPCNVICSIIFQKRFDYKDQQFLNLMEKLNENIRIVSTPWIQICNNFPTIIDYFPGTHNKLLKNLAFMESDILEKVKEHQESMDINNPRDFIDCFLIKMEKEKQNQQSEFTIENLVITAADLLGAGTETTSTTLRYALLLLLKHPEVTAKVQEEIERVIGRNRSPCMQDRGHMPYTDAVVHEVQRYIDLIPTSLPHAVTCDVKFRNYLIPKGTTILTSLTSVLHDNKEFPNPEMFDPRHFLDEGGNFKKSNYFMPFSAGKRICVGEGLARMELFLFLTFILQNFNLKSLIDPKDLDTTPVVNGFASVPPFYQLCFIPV
Method: as §1

CYP3A4-T = target: T4, CYP3A4-T (Homo sapiens, UniProt P08684); assay: CYP enzyme inhibition assay, CYP3A4-T; type: in vitro ADME; conditions: human liver microsomes
T4 construct: An incubation system of human liver microsomes (20 μL, 1.5 mg/mL); from tissue; host or cells: human liver microsomes
T4 sequence (P08684 whole entry): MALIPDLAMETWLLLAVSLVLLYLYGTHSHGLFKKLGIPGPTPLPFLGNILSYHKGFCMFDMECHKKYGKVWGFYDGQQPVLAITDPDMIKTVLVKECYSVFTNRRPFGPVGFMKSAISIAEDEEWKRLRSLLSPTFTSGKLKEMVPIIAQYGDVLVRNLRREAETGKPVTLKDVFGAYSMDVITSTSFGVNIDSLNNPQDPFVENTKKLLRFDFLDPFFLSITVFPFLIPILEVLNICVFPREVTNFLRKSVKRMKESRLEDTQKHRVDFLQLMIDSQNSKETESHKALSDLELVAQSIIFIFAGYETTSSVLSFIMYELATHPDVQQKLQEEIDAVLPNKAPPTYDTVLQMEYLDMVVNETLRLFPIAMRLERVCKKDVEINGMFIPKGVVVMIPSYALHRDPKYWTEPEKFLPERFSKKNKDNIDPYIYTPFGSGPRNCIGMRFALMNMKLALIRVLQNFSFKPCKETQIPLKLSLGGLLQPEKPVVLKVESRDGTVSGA
Method: (§2) An incubation system of human liver microsomes (20 μL, 1.5 mg/mL), 20 μL probe substrates, and 50 μL test compound in Tris (0.1 mol/L) was pre-incubated at 37 °C for 10 min, and then initiated by adding NADPH (10 μL, 10 mmol/L). The system was incubated for another 15 min and subsequently terminated by 100 μL MeCN containing internal standard (propranolol, nadolol). Finally, the sample was centrifugated to obtain the supernatant for LC‒MS/MS analysis.

hERG channel = target: T5, hERG channel (Homo sapiens, UniProt Q12809); assay: hERG inhibition assay (QPatch, CHO-hERG cells); type: cell-based; conditions: automated QPatch, n = 3
T5 construct: expressed in transfected cells; host or cells: CHO-hERG cells
T5 sequence (Q12809 whole entry): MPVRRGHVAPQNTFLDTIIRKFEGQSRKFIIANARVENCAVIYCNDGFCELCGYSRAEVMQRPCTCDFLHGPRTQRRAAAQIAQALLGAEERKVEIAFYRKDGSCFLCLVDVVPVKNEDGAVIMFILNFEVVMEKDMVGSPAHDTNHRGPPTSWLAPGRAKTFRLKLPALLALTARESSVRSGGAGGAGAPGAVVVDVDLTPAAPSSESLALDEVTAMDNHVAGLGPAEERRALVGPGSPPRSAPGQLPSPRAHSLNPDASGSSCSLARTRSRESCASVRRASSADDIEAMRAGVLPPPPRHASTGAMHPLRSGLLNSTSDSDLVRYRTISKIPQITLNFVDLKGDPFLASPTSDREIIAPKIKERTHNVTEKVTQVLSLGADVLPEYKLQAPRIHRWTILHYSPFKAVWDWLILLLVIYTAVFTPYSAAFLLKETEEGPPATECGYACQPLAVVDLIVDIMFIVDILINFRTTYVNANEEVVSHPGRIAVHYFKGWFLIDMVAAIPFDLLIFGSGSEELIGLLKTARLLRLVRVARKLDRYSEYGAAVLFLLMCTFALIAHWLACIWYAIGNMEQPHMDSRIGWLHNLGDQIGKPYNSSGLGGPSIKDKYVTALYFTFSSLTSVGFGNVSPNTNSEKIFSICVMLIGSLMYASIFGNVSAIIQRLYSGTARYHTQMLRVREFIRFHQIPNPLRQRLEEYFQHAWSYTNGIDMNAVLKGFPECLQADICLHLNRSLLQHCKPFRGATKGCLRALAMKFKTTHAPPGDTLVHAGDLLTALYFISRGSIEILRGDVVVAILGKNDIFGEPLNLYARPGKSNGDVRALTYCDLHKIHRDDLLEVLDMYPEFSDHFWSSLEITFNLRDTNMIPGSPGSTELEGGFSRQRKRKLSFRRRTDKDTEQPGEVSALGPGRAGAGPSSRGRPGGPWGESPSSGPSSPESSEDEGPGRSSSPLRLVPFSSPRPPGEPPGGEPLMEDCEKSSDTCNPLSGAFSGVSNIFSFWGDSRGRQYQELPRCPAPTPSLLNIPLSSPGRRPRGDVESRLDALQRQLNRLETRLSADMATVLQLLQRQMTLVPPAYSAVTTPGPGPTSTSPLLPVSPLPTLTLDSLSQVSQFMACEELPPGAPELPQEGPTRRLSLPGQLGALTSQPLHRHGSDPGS
Method: CHO-hERG cells were cultured under the condition of 37 °C and 5% CO2. The culture medium was removed when the cell density grew to 60%–80%. Then, the cells were washed (PBS, 7 mL) and digested. After completion, culture medium (7 mL) was added for neutralization and then centrifuged to obtain the cells, which were subsequently resuspended into 5 mL of culture medium for automated Qpatch assays. The electrophysiology process was recorded using the QPatch instrument. The cells were clamped at an equilibrium potential of −80 mV. Voltage stimulation was conducted every 15 s, which concludes a 5 s, +40 mV depolarizing pulse and a 5 s, −50 mV repolarizing pulse. After 2 min of recording, extracellular fluid was given and recorded for 5 min. […] Each concentration was evaluated on 3 cells (n = 3).

PK study in SD rats = type: in vivo; conditions: male, Sprague-Dawley, plasma, SD rat; for half-life: mean ± SD, n = 3; for MRT last: read-out: MRT0–t; for MRT inf: read-out: MRT0–∞
Method: All animal treatments were conducted using an approved protocol of Fudan University (2020CHEM-JS-009). A12 was dissolved in a mixture of DMSO/Solutol HS 15/normal saline (10/10/80, v/v/v). Six Sprague–Dawley rats (male, 180−220 g) were assigned into two groups (n = 3) randomly to receive i.v. (1 mg/kg) or p.o. administration (10 mg/kg) of A12. At the time points of 5, 15, 30 min, 1, 2, 4, 6, 8, 10, 12, and 24 h, blood samples were collected and centrifuged (4 °C, 4500 rpm, 10 min) to obtain plasma. Before LC‒MS/MS analysis, the plasma needs to be stored at −80 °C. Subsequently, 120 μL of MeCN containing internal standard was added to 30 μL of plasma. The mixture was shaken and centrifuged (4 °C, 10,000 rpm, 15 min) to afford the supernatant layer for LC‒MS/MS analysis. Finally, The WinNolin software was applied to calculate the pharmacokinetic parameters.

HIV-1 mutant strains = assay: Antiviral activity against panel of HIV-1 mutant strains (summary ranges); type: cell-based
[2] = system: six CYP isoenzymes (not named; range over all six); assay: CYP inhibition, six isoenzymes (summary range); type: in vitro ADME; conditions: human, human liver microsomes
Method: as §2

WT HIV-1 RT = WT HIV-1 RT (Human immunodeficiency virus type 1 group M subtype B, UniProt P03366); assay: Inhibition of WT HIV-1 RT polymerase activity
Method: The anti-HIV-1 activity of A1–A24 and B1–B22 at the cellular or enzyme level were evaluated following our previously reported method[15].

CYP3A4-M = CYP3A4-M (Homo sapiens, UniProt P08684); assay: CYP enzyme inhibition assay, CYP3A4-M; type: in vitro ADME; design: An incubation system of human liver microsomes (20 μL, 1.5 mg/mL); from tissue; host or cells: human liver microsomes; conditions: human liver microsomes
CYP3A4-M, sequence (P08684 whole entry): as the sequence (P08684 whole entry) above
Method: as §1

Question: For Cc1cc(-c2ccc(C#N)cc2)cc(C)c1Nc1nc(Nc2ccc(C#N)cc2)ncc1F [A12, 4′-((2-((4-Cyanophenyl)amino)-5-fluoropyrimidin-4-yl)amino)-3′,5′-dimethyl-[1,1′-biphenyl]-4-carbonitrile], which EC50 (HIV-1 K103N) is on record?
Answer: 1.7 ± 0.5 nM

Question: And the EC50 (HIV-1 Y181C; Human immunodeficiency virus 1, MT4, read-out: EC50 Y181C)?
Answer: 7.1 ± 1.2 nM

Question: What about the “fold higher efficacy against Y181C than toward RES056” value (HIV-1 Y181C; ratio of EC50 values) of the same compound?
Answer: 6.2 fold

Question: What about the EC50 (HIV-1 E138K) of the same compound?
Answer: 6 ± 0.5 nM

Question: And the EC50 (HIV-1 Y188L)?
Answer: 60 ± 9.2 nM

Question: And the EC50 (HIV-1 F227L + V106A)?
Answer: 157 ± 64 nM

Question: And the half-life at 1 μmol/L ([1]; human liver microsomes 0.5 mg/mL, 1.0 μmol/L compound)?
Answer: 0.405 h

Question: And the CLint scaled at 1 μmol/L ([1]; human liver microsomes, scaled to liver)?
Answer: 51.3 mL/min/kg

Question: What about the microsomal CLint at 1 μmol/L ([1]; human, microsomes) of the same compound?
Answer: 57 µL/min/mg

Question: And the IC50 (CYP1A2)?
Answer: > 25000 nM

Question: And the IC50 (CYP2C9)?
Answer: 6990 nM

Question: And the IC50 (CYP2C19)?
Answer: 14500 nM

Question: What about the IC50 (CYP3A4-T) of the same compound?
Answer: > 25000 nM

Question: What about the IC50 (hERG channel) of the same compound?
Answer: > 40000 nM

Question: What about the AUC(0-inf) (PK study in SD rats; iv, 1.0 mg/kg i.v.) of the same compound?
Answer: 3060 ± 139 ng·h/mL

Question: And the AUC(0-t) (PK study in SD rats; iv, 1.0 mg/kg i.v.)?
Answer: 3000 ± 142 ng·h/mL

Question: What about the Cmax (PK study in SD rats; iv, 1.0 mg/kg i.v.) of the same compound?
Answer: 2350 ± 178 ng/mL

Question: What about the Tmax (PK study in SD rats; iv, 1.0 mg/kg i.v.) of the same compound?
Answer: 0.0833 h

Question: And the half-life (PK study in SD rats; iv, 1.0 mg/kg i.v.)?
Answer: 5.53 ± 2.04 h

Question: And the MRT last (PK study in SD rats; iv, 1.0 mg/kg i.v.)?
Answer: 3.25 ± 0.575 h

Question: And the MRT inf (PK study in SD rats; iv, 1.0 mg/kg i.v.)?
Answer: 3.89 ± 1.03 h

Question: And the bioavailability (PK study in SD rats; oral, 10.0 mg/kg p.o. vs 1.0 mg/kg i.v., read-out: F (oral bioavailability))?
Answer: 29.2 ± 6%

Question: What about the AUC(0-inf) (PK study in SD rats; po, 10.0 mg/kg p.o.) of the same compound?
Answer: 8930 ± 1850 ng·h/mL

Question: And the AUC(0-t) (PK study in SD rats; po, 10.0 mg/kg p.o.)?
Answer: 7340 ± 1890 ng·h/mL

Question: What about the Cmax (PK study in SD rats; po, 10.0 mg/kg p.o.) of the same compound?
Answer: 1390 ± 422 ng/mL

Question: What about the Tmax (PK study in SD rats; po, 10.0 mg/kg p.o.) of the same compound?
Answer: 1 h

Question: And the half-life (PK study in SD rats; po, 10.0 mg/kg p.o.)?
Answer: 13.6 ± 6.64 h

Question: What about the MRT last (PK study in SD rats; po, 10.0 mg/kg p.o.) of the same compound?
Answer: 6.18 ± 0.306 h

Question: And the MRT inf (PK study in SD rats; po, 10.0 mg/kg p.o.)?
Answer: 13.5 ± 6.49 h

Question: And the EC50 (HIV-1 mutant strains; Human immunodeficiency virus 1, read-out: EC50 mutant strains L100I, K103N, Y181C, and E138K)?
Answer: 1.7 to 7.1 nM

Question: What about the EC50 (HIV-1 mutant strains; Human immunodeficiency virus 1, read-out: EC50 seven mutant strains) of the same compound?
Answer: 1.7 to 157 nM

Question: What about the IC50 at 15 min [2] of the same compound?
Answer: 6990 to 25000 nM

Question: And the IC50 (WT HIV-1 RT)?
Answer: 41 ± 6.9 nM

Question: What about the IC50 (CYP3A4-M) of the same compound?
Answer: > 25000 nM
